Patent US20230045151A1, “COMPOSITIONS AND METHODS” (MONASH UNIVERSITY, priority 2020, published 2023)
Where a name gives a salt, the structure may show the parent alone.

Tests used:
[1] = test system: C57BL6/J mice exposed intranasally to house dust mite extract (HDM); assay: HDM animal model of allergic airway inflammation; assay type: in vivo, mouse
Experimental: Mice received water as a control or L-tyrosine (reagent grade, ≥98% Sigma-Aldrich, St. Louis, Mo.) resuspended in drinking water under sterile conditions at the concentration of 100 mg/kg/day or 500 mg/kg/day (based on the assumption of a mouse consuming 4 ml of water daily). All mice received the treatment 2 weeks prior and throughout the experiment. […] Control mice received 200 μl of saline. […]. For experiments employing antibiotic treatment, 3-week old mice were treated with a combination enrofloxacin (10 mg/kg/day) and amoxicillin with clavulanic acid (1 mg/kg/day) for one week, followed by one week of only amoxicillin with clavulanic acid (1 mg/kg/day). Then, mice were then put on L-tyrosine diet in drinking water for two weeks followed by HDM exposure as before. During this time, mice were maintained on antibiotic treatment with amoxicillin/clavulanic acid until end of experiment.
Mice were anaesthetised by the inhalation of 4% isoflurane in oxygen for 3-5 minutes. 20 μg of protein content of crude house dust mite extract (HDM) (Greer Laboratories Inc., Lenoir, N.C.) in 20 μl of sterile phosphate-buffered saline (PBS) (Gibco™) was applied intranasally on days 0, 11, 12 and 13. Mice were humanely sacrificed with the lethal dose of pentobarbital (Streuli Pharma AG, Uznach, Switzerland) on day 14.
Bronchoalveolar lavage fluid (BALF) was collected by flushing airways with 0.5 ml PBS supplemented with 0.2% bovine serum albumin (Sigma-Aldrich, St. Louis, Mo.). Total cell number was determined with Coulter Counter (IG Instrumenten-Gesellschaft AG, Basel, Switzerland) while differential cell staining performed on cytospins stained with Diff-Quik solution (Dade Behring, Siemens Healthcare Diagnostics, Deerfield, Ill.). Percentages of neutrophils, macrophages, lymphocytes and eosinophils were assessed by counting 200 cells per sample.
Concentrations of interleukin-4, -5, -13, -17 and IFN-γ in culture supernatants were analysed with mouse Ready-Set-Go!™ ELISA kits (eBioscience™, San Diego, Calif.) according to manufacturer's instructions. To measure the levels of HDM-specific IgG1 and IgE in plasma, half area 96-well plates (Corning) were coated with HDM (10 μg in PBS) overnight at 4° C., followed by the incubation of samples for 2 hours at RT, and the addition of alkaline-phophatase-conjugated goat anti-mouse IgE or IgG1 (both from SouthernBiotech, Birmingham, Ala.; diluted at 1 μg ml-1 in PBS 0.2% BSA) for 2 hours at RT. 4-nitrophenyl phosphate sodium salt hexahydrate (pNPP) (Sigma) was used as a substrate, and the colorimetric reaction was read at 405 nm on the Synergy H1 microplate reader (Biotek, Luzern, Switzerland). To measure the levels of total IgA and IgM as well as hen egg lysozyme (HEL)-specific IgA and IgM in mouse faeces, faecal pellets were homogenized in 0.8 ml cold PBS, centrifuged at 400 g for 5 minutes to remove large debris, filtered through 40 μm cell strainer and centrifuged at 8000 g for 10 minutes to pellet bacteria. The supernatant was collected and loaded for 2 hours at RT on 96-well half area plates coated a day before at 4° C. with anti-IgA (Southern Biotech; 2 μg ml-1), anti-IgM (SouthernBiotech; 2 μg ml-1) or HEL protein (Sigma-Aldrich; 10 μg/ml). This step was followed by the addition of alkalinephophatase-conjugated goat anti-mouse IgA or IgM (both at 1 μg ml-1 in PBS 0.2% BSA) for 2 hours at RT. 4-nitrophenyl phosphate sodium salt hexahydrate (pNPP) (Sigma) was used as a substrate, and the colorimetric reaction was read at 405 nm as before.
Mediastinal lymph nodes were filtered through a 40 μm cell strainer, washed with PBS supplemented with 1% fetal bovine serum and 2 mM EDTA (Invitrogen) (MACS buffer). Lungs were finely cut with scissors, digested with Collagenase IV (Gibco™) in Iscove's modified Dulbecco's medium (IMDM, Gibco™) for 50 min at 37° C. and processed as the lymph nodes.

CCL20 = assay: In vitro stimulation of lung cells enriched for airway epithelial cells, chemokine release; assay type: cell-based, mouse; conditions: 24 hours; for CCL20 production by lung cells stimulated with LPS: EGF 100 ng/ml, amphiregulin 500 ng/ml or gefitinib 0.16 μM, lower efficacy than PCS
Experimental: Mice were euthanized by CO2 inhalation, instilled with a 1.5 ml dispase II (Sigma-Aldrich) intratracheally, followed by intratracheal injection of 0.5 ml 1% low melting point agarose (Sigma-Aldrich). Lungs were then covered with ice for 3 min, removed and placed in a 15 ml falcon tube with 2 ml of dispase II, and incubated for 45 min with gentle agitation. This was followed by mechanical disruption of the lung lobes using forceps in DMEM supplemented with DNAse I (Sigma-Aldrich, 1U/ml), filtration through 70- and 40-μM cell strainers (Falcon®, Corning) and lysis of erythrocytes using red blood cell lysing buffer (BD Biosciences). Lung cells were plated in a flat-bottom 24-well or 96-well plates (Costar) coated with fibronectin (Sigma-Aldrich, 10 μg/ml) at the density of 1 mln or 0.2 mln cells/well, respectively.
5% CO2, after which the supernatant was collected and stored at −20° C. until further use.

[2] = test system: mice exposed intranasally to ovalbumin/LPS; assay: OVA/LPS animal model of pulmonary type 1 inflammation; assay type: in vivo, mouse; conditions: PCS intravenous on day -1 and day 11
Experimental: Results are from one experiment (n=4 per group, p=0.0335). All data are presented as mean values+/−SEM. *p≤0.05. Statistical significance was evaluated with Mann-Whitney test.
Mice were anaesthetized by the inhalation of 4% isoflurane in oxygen for 3-5 min. 100 μg Ovalbumin (Invivogen, cat nr vac-pova) was mixed with 10 μg LPS from E. coli (Sigma-Aldrich, cat nr L4391) and administered intranasally per mouse on days 0, 11, 12 and 13. Mice were sacrificed with the lethal dose of pentobarbital on day 14.

[3] = mouse, in vivo
Experimental: Concentrations of cystatin, clusterin, lipocalin-2 and osteopontin in serum of vehicle or PCStreated mice were determined with MILLIPLEX MAP Mouse Kidney Injury Magnetic Bead Panel 2—Toxicity Multiplex Assay (Merck) according to manufacturer's instructions.

[4] = test system: epithelial cells, dendritic cells, macrophages and bone marrow precursors; assay: Effect of PCS on cells (deleteriousness); assay type: cell-based
[5] = mice with normal renal function, cited from earlier work
[6] = PCS intravenous 40 mg/kg, lymph node cells restimulated with HDM for 4 days
[7] = lung cells from naive mice, HDM 100 μg/ml, PCS 100 μg/ml

Compound	FoxP3+ Tregs in the lungs ([1]; PCS intravenous 40 mg/kg)	numbers of lung CD4+ T cells ([1]; PCS intravenous 40 mg/kg)	recruitment of neutrophils ([1]; PCS intravenous 40 mg/kg)	infiltration of DCs into the lungs ([1]; PCS intravenous 40 mg/kg, vs saline)	production of IL-5 by restimulated mediastinal lymph nodes [1, 6]	production of IL-13 by restimulated mediastinal lymph nodes [1, 6]	eosinophilia in the BALF ([1]; PCS intravenous (retro-orbital) 40 mg/kg on day -1 and day 11, vs saline, HDM days 0, 11, 12, 13)	HDM-induced production of CCL20 (CCL20; [7])	HDM-induced secretion of other chemokines (CCL20; [7])	LPS-induced CCL20 (CCL20; lung cells from naive mice, LPS 10 μg/ml, PCS 100 μg/ml)	infiltration of CD4+ T cells to the airways ([2]; ovalbumin/LPS)	infiltration of CD8+ T cells to the airways ([2]; ovalbumin/LPS)	infiltration of neutrophils to the airways ([2]; ovalbumin/LPS intranasal days 0, 11, 12, 13)	elevation of major kidney toxicity markers [3]	deleterious effect on epithelial cells, dendritic cells, macrophages and bone marrow precursors [4]	time to clearance from the blood ([5]; intraperitoneal or oral PCS) [h]	accumulation on chronic administration ([5]; twice a day for 4 weeks)	CCL20 production by lung cells stimulated with LPS (CCL20; LPS 10 μg/ml)
Cc1ccc(OS(=O)(=O)O)cc1 [PCS, p-cresol sulfate]	no major alterations	no major alterations	reduced	decreased	reduced	reduced	ameliorated	completely abrogated	did not have an effect	inhibited	inhibited	inhibited	inhibited	not detected	not deleterious	≤ 4	does not lead to its accumulation	
COc1cc2ncnc(Nc3ccc(F)c(Cl)c3)c2cc1OCCCN1CCOCC1 [gefitinib, reference compound]																		selective reduction
EGF: high affinity EGFR ligand, Epidermal Growth Factor																		selective reduction
